Experimental data: patent US7250399B2, “Compounds having growth hormone releasing activity” (The Administrators of the Tulane Educational Fund, priority 1998, dated 2007)
Where “and” joins values, the source holds several entries; their conditions need not be identical. Equal entries are not always repeated.

Key:
Growth Hormone release [1] = assay: In Vivo GH Release in Rats (i.v., serum GH by RIA); set-up: species or system Sprague-Dawley rats; conditions: i.v., serum 10 min after injection
Protocol: Immature female Sprague-Dawley rats were obtained from the Charles River Laboratories (Wilmington, Mass.). After arrival they were housed at 25° C. with a 14:10 hour light:dark cycle. Water and Purina rat chow were available ad libitum. Pups were kept with their mothers until 21 days of age.
Twenty-six day old rats, six rats per treatment group, were anesthetized interperitoneally with 50 mg/kg of pentobarbital 20 minutes prior to i.v. treatment with peptide. Normal saline with 0.1% gelatin was the vehicle for intravenous (i.v.) injections of the peptides. The anesthetized rats, weighing 55-65 grams, were injected i.v. with the quantity of grown hormone releasing compounds indicated in Table 3. Injection was made as a 0.1 mL solution into the jugular vein.
All animals were sacrificed by guillotine 10 minutes after final test injection (see Table 3). Trunk blood for the determination of blood GH levels was collected following decapitation. After allowing the blood to clot, it was centrifuged and the serum was separated from the clot. Serum was kept frozen until the day of sampling for radioimmunoassay (RIA) determination of growth hormone levels according to the following procedure, as developed by the National Institute of Arthritis, Diabetes and Digestive and Kidney Diseases (NIADDK).
Reagents are generally added to the RIA analysis tubes at a single sitting, at refrigerator temperature (about 4° C.) in the following sequence: • (a) buffer, • (b) “cold” (i.e., non-radioactive) standard or unknown serum sample to be analyzed, • (c) radio-iodinated growth hormone antigen, and • (d) growth hormone antiserum.
Reagent addition is generally carried out so that there is achieved a final RIA tube dilution of about 1:30,000 (antiserum to total liquid volume; vol:vol).
The mixed reagents are then typically incubated at room temperature (about 25° C.) for about 24 hours prior to addition of a second antibody (e.g., goat or rabbit anti-monkey gamma globulin serum) which binds to and causes precipitation of the complexed growth hormone antiserum. Precipitated contents of the RIA tubes are then analyzed for the number of counts in a specified period of time in a gamma scintillation counter. A standard curve is prepared by plotting number of radioactive counts versus growth hormone (GH) level. GH levels of unknown are then determined by reference to the standard curve.
Serum GH was measured by RIA with reagents provided by the National Hormone and Pituitary Program.
Serum levels in Tables 3 and 4 are recorded in ng/mL in terms of the rat GH standard of 0.61 International Units/mg (IU/mg). Data is recorded as the mean ±standard error of the mean (SEM). Statistical analysis was performed with Student's t-test. In Table 3, the results shown are the average of studies with six rats.

Growth Hormone release [2] = assay: In Vitro Release of Growth Hormone in Rat; assay type: cell-based
Protocol: (§1) In vitro and in vivo activity of certain compounds were determined in rats and adult beagle dogs (in vivo activity only).

Growth Hormone release [3] = assay: In Vivo Release of Growth Hormone in Adult Beagle Dogs; set-up: unit not given here
Protocol: as §1

[4] = compound at 1 (dose unit not given)
[5] = compound at 3 (dose unit not given)
[6] = compound at .1 (dose unit not given)
[7] = compound at .3 (dose unit not given)
[8] = compound at .01 (dose unit not given)

## Aib-DTrp-DTrp-Phe-Arg-5-aminopentylamide [DTrpPhe-Arg-5-amino pentamide]
Growth Hormone release [1]; [4]
  In Vivo Release of Growth Hormone in Rat, GH: 2272 ng/mL
Growth Hormone release [1]; [5]
  In Vivo Release of Growth Hormone in Rat, GH: 2929 ng/mL
Growth Hormone release [1]; [6]
  In Vivo Release of Growth Hormone in Rat, GH: 262 ng/mL
Growth Hormone release [1]; [7]
  In Vivo Release of Growth Hormone in Rat, GH: 274 ng/mL
Growth Hormone release [2]; compound at .0001 (dose unit not given)
  In Vitro Release of Growth Hormone in Rat, GH: 1228 ng/mL
Growth Hormone release [2]; compound at .0003 (dose unit not given)
  In Vitro Release of Growth Hormone in Rat, GH: 1416 ng/mL
Growth Hormone release [2]; compound at .001 (dose unit not given)
  In Vitro Release of Growth Hormone in Rat, GH: 1712 ng/mL
Growth Hormone release [2]; compound at .003 (dose unit not given)
  In Vitro Release of Growth Hormone in Rat, GH: 1648 ng/mL
Growth Hormone release [2]; [8]
  In Vitro Release of Growth Hormone in Rat, GH: 1621 ng/mL
Growth Hormone release [3]; oral dose 1 mg/kg, time 0 hr
  In Vivo Release of Growth Hormone in Adult Beagle Dogs: 2.5
Growth Hormone release [3]; oral dose 1 mg/kg, time 0.5 hr
  In Vivo Release of Growth Hormone in Adult Beagle Dogs: 38
Growth Hormone release [3]; oral dose 1 mg/kg, time 1 hr
  In Vivo Release of Growth Hormone in Adult Beagle Dogs: 8.5
Growth Hormone release [3]; oral dose 1 mg/kg, time 2 hr
  In Vivo Release of Growth Hormone in Adult Beagle Dogs: 2.8
Growth Hormone release [3]; oral dose 1 mg/kg, time 3 hr
  In Vivo Release of Growth Hormone in Adult Beagle Dogs: 2.3
Growth Hormone release [3]; oral dose 1 mg/kg, time 4 hr
  In Vivo Release of Growth Hormone in Adult Beagle Dogs: 1.4
Growth Hormone release [3]; oral dose 1 mg/kg, time 5 hr
  In Vivo Release of Growth Hormone in Adult Beagle Dogs: 1.7
Growth Hormone release [3]; oral dose 1 mg/kg, time 6 hr
  In Vivo Release of Growth Hormone in Adult Beagle Dogs: 2.1
Growth Hormone release [3]; oral dose 1 mg/kg, time 7 hr
  In Vivo Release of Growth Hormone in Adult Beagle Dogs: 2
Growth Hormone release [3]; oral dose 1 mg/kg, time 8 hr
  In Vivo Release of Growth Hormone in Adult Beagle Dogs: 0.8
Growth Hormone release [3]; oral dose 2 mg/kg, time 0 hr
  In Vivo Release of Growth Hormone in Adult Beagle Dogs: 3.1
Growth Hormone release [3]; oral dose 2 mg/kg, time 0.5 hr
  In Vivo Release of Growth Hormone in Adult Beagle Dogs: 83
Growth Hormone release [3]; oral dose 2 mg/kg, time 1 hr
  In Vivo Release of Growth Hormone in Adult Beagle Dogs: 20
Growth Hormone release [3]; oral dose 2 mg/kg, time 2 hr
  In Vivo Release of Growth Hormone in Adult Beagle Dogs: 6.8
Growth Hormone release [3]; oral dose 2 mg/kg, time 3 hr
  In Vivo Release of Growth Hormone in Adult Beagle Dogs: 3.9
Growth Hormone release [3]; oral dose 2 mg/kg, time 4 hr
  In Vivo Release of Growth Hormone in Adult Beagle Dogs: 2.9
Growth Hormone release [3]; oral dose 2 mg/kg, time 5 hr
  In Vivo Release of Growth Hormone in Adult Beagle Dogs: 3.3
Growth Hormone release [3]; oral dose 2 mg/kg, time 6 hr
  In Vivo Release of Growth Hormone in Adult Beagle Dogs: 3.1
Growth Hormone release [3]; oral dose 2 mg/kg, time 7 hr
  In Vivo Release of Growth Hormone in Adult Beagle Dogs: 3.3
Growth Hormone release [3]; oral dose 2 mg/kg, time 8 hr
  In Vivo Release of Growth Hormone in Adult Beagle Dogs: 3

## Aib-DTrp-DPro-diisobutylamide
Growth Hormone release [1]; [4]
  In Vivo Release of Growth Hormone in Rat, GH: 642 ng/mL
Growth Hormone release [1]; [5]
  In Vivo Release of Growth Hormone in Rat, GH: 1524 ng/mL
Growth Hormone release [1]; compound at 10 (dose unit not given)
  In Vivo Release of Growth Hormone in Rat, GH: 1837 ng/mL
Growth Hormone release [1]; compound at 30 (dose unit not given)
  In Vivo Release of Growth Hormone in Rat, GH: 2307 ng/mL
Growth Hormone release [1]; compound at 100 (dose unit not given)
  In Vivo Release of Growth Hormone in Rat, GH: 2913 ng/mL
Growth Hormone release [2]; [4]
  In Vitro Release of Growth Hormone in Rat, GH: 1124 ng/mL
Growth Hormone release [2]; [8]
  In Vitro Release of Growth Hormone in Rat, GH: 1322 ng/mL
Growth Hormone release [2]; compound at .03 (dose unit not given)
  In Vitro Release of Growth Hormone in Rat, GH: 1529 ng/mL
Growth Hormone release [2]; [6]
  In Vitro Release of Growth Hormone in Rat, GH: 1427 ng/mL
Growth Hormone release [2]; [7]
  In Vitro Release of Growth Hormone in Rat, GH: 1155 ng/mL
Growth Hormone release [3]; oral dose 1 mg/kg, time 0.5 hr, listed as DPo-diisobutylamide, 1 mg/kg
  In Vivo Release of Growth Hormone in Adult Beagle Dogs: 85 and 128 and 89
Growth Hormone release [3]; oral dose 1 mg/kg, time 1 hr, listed as DPo-diisobutylamide, 1 mg/kg
  In Vivo Release of Growth Hormone in Adult Beagle Dogs: 30 and 50 and 59
Growth Hormone release [3]; oral dose 1 mg/kg, time 2 hr, listed as DPo-diisobutylamide, 1 mg/kg
  In Vivo Release of Growth Hormone in Adult Beagle Dogs: 16 and 24 and 30
Growth Hormone release [3]; oral dose 1 mg/kg, time 4 hr, listed as DPo-diisobutylamide, 1 mg/kg
  In Vivo Release of Growth Hormone in Adult Beagle Dogs: 6 and 5.6 and 7
Growth Hormone release [3]; oral dose 1 mg/kg, time 7 hr, listed as DPo-diisobutylamide, 1 mg/kg
  In Vivo Release of Growth Hormone in Adult Beagle Dogs: 2.5 and 2.2 and 3.7
Growth Hormone release [3]; oral dose 2 mg/kg, time 0.5 hr
  In Vivo Release of Growth Hormone in Adult Beagle Dogs: 54
Growth Hormone release [3]; oral dose 2 mg/kg, time 1 hr
  In Vivo Release of Growth Hormone in Adult Beagle Dogs: 30
Growth Hormone release [3]; oral dose 2 mg/kg, time 2 hr
  In Vivo Release of Growth Hormone in Adult Beagle Dogs: 22
Growth Hormone release [3]; oral dose 2 mg/kg, time 3 hr
  In Vivo Release of Growth Hormone in Adult Beagle Dogs: 15
Growth Hormone release [3]; oral dose 2 mg/kg, time 4 hr
  In Vivo Release of Growth Hormone in Adult Beagle Dogs: 7
Growth Hormone release [3]; oral dose 2 mg/kg, time 5 hr
  In Vivo Release of Growth Hormone in Adult Beagle Dogs: 4.6
Growth Hormone release [3]; oral dose 2 mg/kg, time 6 hr
  In Vivo Release of Growth Hormone in Adult Beagle Dogs: 4.8
Growth Hormone release [3]; oral dose 2 mg/kg, time 8 hr
  In Vivo Release of Growth Hormone in Adult Beagle Dogs: 1.8
Growth Hormone release [3]; oral dose 4 mg/kg, time 0 hr, listed as DPo-diisobutylamide, 4 mg/kg
  In Vivo Release of Growth Hormone in Adult Beagle Dogs: 1.4 and 0.8
Growth Hormone release [3]; oral dose 4 mg/kg, time 3 hr, listed as DPo-diisobutylamide, 4 mg/kg
  In Vivo Release of Growth Hormone in Adult Beagle Dogs: 15 and 22
Growth Hormone release [3]; oral dose 4 mg/kg, time 7 hr, listed as DPo-diisobutylamide, 4 mg/kg
  In Vivo Release of Growth Hormone in Adult Beagle Dogs: 6.9
